In ChEMBL document CHEMBL1770127, “2-(2-Aminothiazol-4-yl)pyrrolidine-based tartrate diamides as potent, selective and orally bioavailable TACE inhibitors” (Bioorg Med Chem Lett, 2011):
pIC50, pKi: −log10 of the molar value.

Columns and labels:
[1] = target: T1, Disintegrin and metalloproteinase domain-containing protein 17 (Homo sapiens, UniProt P78536); assay: Inhibition of TACE by cell based assay
[2] = target: T1, Disintegrin and metalloproteinase domain-containing protein 17; assay: Inhibition of TACE
[3] = AUC in Sprague-Dawley rat at 10 mg/kg, po measured within 6 hrs after post-dosing by LC/MS/MS analysis; type: ADME, organism-based; design: time < 6 hr, dose 10 mg/kg, route oral; conditions: plasma
[4] = Plasma concentration in Sprague-Dawley rat at 10 mg/kg, po measured after 6 hrs by LC/MS/MS analysis; type: ADME, organism-based; design: dose 10 mg/kg, route oral

T1 sequence (P78536 whole entry, the tested form may be a part): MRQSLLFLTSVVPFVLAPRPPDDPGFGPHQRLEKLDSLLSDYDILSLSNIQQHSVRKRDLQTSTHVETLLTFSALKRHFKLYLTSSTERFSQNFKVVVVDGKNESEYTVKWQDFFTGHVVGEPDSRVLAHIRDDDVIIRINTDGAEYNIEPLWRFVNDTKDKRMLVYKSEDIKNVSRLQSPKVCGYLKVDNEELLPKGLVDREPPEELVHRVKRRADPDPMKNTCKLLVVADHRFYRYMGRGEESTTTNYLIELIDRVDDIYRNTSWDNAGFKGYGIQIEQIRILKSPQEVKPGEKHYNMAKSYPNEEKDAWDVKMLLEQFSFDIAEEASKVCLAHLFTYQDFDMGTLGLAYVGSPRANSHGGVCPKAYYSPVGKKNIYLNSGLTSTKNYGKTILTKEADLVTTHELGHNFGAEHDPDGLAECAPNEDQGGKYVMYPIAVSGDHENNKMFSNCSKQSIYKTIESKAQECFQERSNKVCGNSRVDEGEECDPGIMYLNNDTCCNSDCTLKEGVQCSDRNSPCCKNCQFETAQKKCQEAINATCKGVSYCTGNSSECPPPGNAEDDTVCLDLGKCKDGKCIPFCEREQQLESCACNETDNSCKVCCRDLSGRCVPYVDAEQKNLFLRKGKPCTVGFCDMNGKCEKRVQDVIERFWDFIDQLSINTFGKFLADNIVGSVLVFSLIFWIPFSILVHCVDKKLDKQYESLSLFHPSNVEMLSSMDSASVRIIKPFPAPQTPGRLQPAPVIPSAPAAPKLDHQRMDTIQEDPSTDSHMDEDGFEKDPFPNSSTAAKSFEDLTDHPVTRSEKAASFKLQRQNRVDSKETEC

CNc1nc([C@H]2CCCN2C(=O)[C@H](O)[C@@H](O)C(=O)N[C@H](C)c2ccc(-n3cccn3)cc2)c(S(C)(=O)=O)s1
pIC50 [1]: 6.14

C[C@@H](NC(=O)[C@H](O)[C@@H](O)C(=O)N1CCC[C@]1(C)c1cccc(Cl)c1)c1ccc(-n2cccn2)cc1
pKi [2]: 9.40 | AUC at 6 h [3]: 1.47 µM·h

C[C@@H](NC(=O)[C@H](O)[C@@H](O)C(=O)N1CC=C[C@@H]1c1cccc(Cl)c1)c1ccc(-n2cccn2)cc1
pKi [2]: 9.30 | AUC at 6 h [3]: 0.461 µM·h

COc1cc2c(cc1OC)[C@H](c1ccc(Cl)cc1)N(C(=O)[C@H](O)[C@@H](O)C(=O)N[C@H](C)c1ccc(-n3cccn3)cc1)CC2
pKi [2]: 8.59

COc1cc2c(cc1OC)[C@H](c1ccccc1)CN(C(=O)[C@H](O)[C@@H](O)C(=O)N[C@H](C)c1ccc(-n3cccn3)cc1)CC2
pKi [2]: 7.42

C[C@@H](NC(=O)[C@H](O)[C@@H](O)C(=O)N1CCC[C@@H]1c1cc[nH]n1)c1ccc(-n2cccn2)cc1
pKi [2]: 8.30 | AUC at 6 h [3]: 0.578 µM·h

C[C@@H](NC(=O)[C@H](O)[C@@H](O)C(=O)N1CCC[C@@H]1c1ccn(C)n1)c1ccc(-n2cccn2)cc1
pKi [2]: 8.40 | AUC at 6 h [3]: 2.92 µM·h | concentration at 6 h [4]: 0.086 µM

C[C@@H](NC(=O)[C@H](O)[C@@H](O)C(=O)N1CCC[C@@H]1c1nccs1)c1ccc(-n2cccn2)cc1
pKi [2]: 8.00

Cc1nc([C@H]2CCCN2C(=O)[C@H](O)[C@@H](O)C(=O)N[C@H](C)c2ccc(-n3cccn3)cc2)cs1
pKi [2]: 8.00

C[C@@H](NC(=O)[C@H](O)[C@@H](O)C(=O)N1CCC[C@@H]1c1csc(N)n1)c1ccc(-n2cccn2)cc1
pKi [2]: 8.22 | AUC at 6 h [3]: 2.28 µM·h | concentration at 6 h [4]: 0.247 µM | pIC50 [1]: 5.37

CNc1nc([C@H]2CCCN2C(=O)[C@H](O)[C@@H](O)C(=O)N[C@H](C)c2ccc(-n3cccn3)cc2)cs1
pKi [2]: 8.15 | AUC at 6 h [3]: 30.7 µM·h | concentration at 6 h [4]: 2.54 µM | pIC50 [1]: 5.24

CCNc1nc([C@H]2CCCN2C(=O)[C@H](O)[C@@H](O)C(=O)N[C@H](C)c2ccc(-n3cccn3)cc2)cs1
pKi [2]: 8.15 | AUC at 6 h [3]: 52 µM·h | concentration at 6 h [4]: 5.97 µM | pIC50 [1]: 5.29

CCCNc1nc([C@H]2CCCN2C(=O)[C@H](O)[C@@H](O)C(=O)N[C@H](C)c2ccc(-n3cccn3)cc2)cs1
pKi [2]: 8.40 | AUC at 6 h [3]: 48.3 µM·h | concentration at 6 h [4]: 5.4 µM | pIC50 [1]: 5.35

CC(C)Nc1nc([C@H]2CCCN2C(=O)[C@H](O)[C@@H](O)C(=O)N[C@H](C)c2ccc(-n3cccn3)cc2)cs1
pKi [2]: 7.77 | AUC at 6 h [3]: 115 µM·h | concentration at 6 h [4]: 12.3 µM | pIC50 [1]: 5.18

C[C@@H](NC(=O)[C@H](O)[C@@H](O)C(=O)N1CCC[C@@H]1c1csc(NC2CCC2)n1)c1ccc(-n2cccn2)cc1
pKi [2]: 8.40 | AUC at 6 h [3]: 31.4 µM·h | concentration at 6 h [4]: 3.54 µM | pIC50 [1]: 5.67

C[C@@H](NC(=O)[C@H](O)[C@@H](O)C(=O)N1CCC[C@@H]1c1csc(Nc2ccccc2F)n1)c1ccc(-n2cccn2)cc1
pKi [2]: 9.00 | AUC at 6 h [3]: 0.13 µM·h | pIC50 [1]: 5.94

C[C@@H](NC(=O)[C@H](O)[C@@H](O)C(=O)N1CCC[C@@H]1c1csc(Nc2cccnc2)n1)c1ccc(-n2cccn2)cc1
pKi [2]: 8.70 | pIC50 [1]: 5.26

C[C@@H](NC(=O)[C@H](O)[C@@H](O)C(=O)N1CCC[C@@H]1c1csc(N(C)C)n1)c1ccc(-n2cccn2)cc1
pKi [2]: 7.19

C[C@@H](NC(=O)[C@H](O)[C@@H](O)C(=O)N1CCC[C@@H]1c1csc(N2CCCCC2)n1)c1ccc(-n2cccn2)cc1
pKi [2]: 7.41 | AUC at 6 h [3]: 1.96 µM·h

CNc1nc([C@H]2CCCN2C(=O)[C@H](O)[C@@H](O)C(=O)N[C@H](C)c2ccc(-n3cccn3)cc2)c(C)s1
pKi [2]: 8.70 | AUC at 6 h [3]: 5.44 µM·h | pIC50 [1]: 5.65

CNc1nc([C@H]2CCCN2C(=O)[C@H](O)[C@@H](O)C(=O)N[C@H](C)c2ccc(-n3cccn3)cc2)c(C2CC2)s1
pKi [2]: 8.70 | AUC at 6 h [3]: 11.4 µM·h | pIC50 [1]: 5.59

CNc1nc([C@H]2CCCN2C(=O)[C@H](O)[C@@H](O)C(=O)N[C@H](C)c2ccc(-n3cccn3)cc2)c(-c2ccc(F)cc2)s1
pKi [2]: 9.00 | pIC50 [1]: 5.49

CNc1nc([C@H]2CCCN2C(=O)[C@H](O)[C@@H](O)C(=O)N[C@H](C)c2ccc(-n3cccn3)cc2)c(C#N)s1
pKi [2]: 8.70 | AUC at 6 h [3]: 0.154 µM·h | pIC50 [1]: 5.52

CCNc1nc([C@H]2C[C@@H](C)CN2C(=O)[C@H](O)[C@@H](O)C(=O)N[C@H](C)c2ccc(-n3cccn3)cc2)cs1
pKi [2]: 8.22 | AUC at 6 h [3]: 5.62 µM·h | pIC50 [1]: 5.39

CNc1nc([C@H]2CC(F)(F)CN2C(=O)[C@H](O)[C@@H](O)C(=O)N[C@H](C)c2ccc(-n3cccn3)cc2)cs1
pKi [2]: 8.40 | AUC at 6 h [3]: 1.42 µM·h | pIC50 [1]: 5.56

CNc1nc([C@H]2C=CCN2C(=O)[C@H](O)[C@@H](O)C(=O)N[C@H](C)c2ccc(-n3cccn3)cc2)cs1
pKi [2]: 9.22 | AUC at 6 h [3]: 1.81 µM·h | pIC50 [1]: 5.87

CNc1nc([C@H]2C[C@H]3C[C@H]3N2C(=O)[C@H](O)[C@@H](O)C(=O)N[C@H](C)c2ccc(-n3cccn3)cc2)cs1
pKi [2]: 9.00 | AUC at 6 h [3]: 0.925 µM·h | pIC50 [1]: 6.15

CNc1nc([C@H]2C[C@@H]3C[C@@H]3N2C(=O)[C@H](O)[C@@H](O)C(=O)N[C@H](C)c2ccc(-n3cccn3)cc2)cs1
pKi [2]: 6.27

CNc1nc([C@H]2c3cc(F)ccc3CN2C(=O)[C@H](O)[C@@H](O)C(=O)N[C@H](C)c2ccc(-n3cccn3)cc2)cs1
pKi [2]: 7.80 | AUC at 6 h [3]: 0.237 µM·h | pIC50 [1]: 6.42

CNc1nc([C@H]2c3ccc(F)cc3CN2C(=O)[C@H](O)[C@@H](O)C(=O)N[C@H](C)c2ccc(-n3cccn3)cc2)cs1
pKi [2]: 8.70 | pIC50 [1]: 6.54

CCNc1nc([C@H]2c3cnc(N)nc3CN2C(=O)[C@H](O)[C@@H](O)C(=O)N[C@H](C)c2ccc(-n3cccn3)cc2)cs1
pKi [2]: 9.30 | pIC50 [1]: 6.59

C[C@@H](NC(=O)[C@H](O)[C@@H](O)C(=O)N1CC[C@H](O)C1c1cccc(Cl)c1)c1ccc(-n2cccn2)cc1 (mixture of isomers)
pKi [2]: 8.17 | AUC at 6 h [3]: 4.76 µM·h

C[C@@H](NC(=O)[C@H](O)[C@@H](O)C(=O)N1C[C@H](O)CC1c1cccc(Cl)c1)c1ccc(-n2cccn2)cc1 (mixture of isomers)
pKi [2]: 8.12 | AUC at 6 h [3]: 3.91 µM·h

C[C@@H](NC(=O)[C@H](O)[C@@H](O)C(=O)N1CCCCC1c1cccc(Cl)c1)c1ccc(-n2cccn2)cc1 (mixture of isomers)
pKi [2]: 7.06

C[C@@H](NC(=O)[C@H](O)[C@@H](O)C(=O)N1CCCCC1c1ccc(Cl)cc1)c1ccc(-n2cccn2)cc1 (mixture of isomers)
pKi [2]: 7.66

C[C@@H](NC(=O)[C@H](O)[C@@H](O)C(=O)N1CCCCC1c1ccccc1)c1ccc(-n2cccn2)cc1 (mixture of isomers)
pKi [2]: 7.85

COc1cc2c(cc1OC)C(c1ccccc1)N(C(=O)[C@H](O)[C@@H](O)C(=O)N[C@H](C)c1ccc(-n3cccn3)cc1)CC2 (mixture of isomers)
pKi [2]: 9.05 | AUC at 6 h [3]: 1.24 µM·h

CNc1nc(C2(C)CCCN2C(=O)[C@H](O)[C@@H](O)C(=O)N[C@H](C)c2ccc(-n3cccn3)cc2)cs1 (mixture of isomers)
pKi [2]: 8.05 | AUC at 6 h [3]: 2.44 µM·h | pIC50 [1]: 4.86
